B1: myelin basic protein (protein, UniProt P02686 1-304, looked up)
Myelin basic protein: MGNHAGKRELNAEKASTNSETNRGESEKKRNLGELSRTTSEDNEVFGEADANQNNGTSSQDTAVTDSKRTADPKNAWQDAHPADPGSRPHLIRLFSRDAPGREDNTFKDRPSESDELQTIQEDSAATSESLDVMASQKRPSQRHGSKYLATASTMDHARHGFLPRHRDTGILDSIGRFFGGDRGAPKRGSGKDSHHPARTAHYGSLPQKSHGRTQDENPVVHFFKNIVTPRTPPPSQGKGRGLSLSRFSWGAEGQRPGFGYGGRASDYKSAHKGFKGVDAQGTLSKIFKLGGRDSRSGSPMARR

Experiments:
[1] = system: serum IgE anti-estrogen antibodies; test: ELISA binding of IgE estrogen antibodies to different hormones in solid phase; parameters: species or system human; conditions: for IgE anti-estrogen binding: relative to estrogen, over three sera; for IgE binding (optical density): hormone in solid phase, 405 nm; for IgE % reaction: relative to estrogen = 100
Description: (§1) The ELISA inhibition method was used to determine specificity and cross-reactivity between different hormones and to ensure the degree of human IgG, IgM and IgE estrogen or progesterone binding to estrogen or progesterone in solid phase. […] 100 μl of sera from three different patients with high IgG, IgM or IgE antibodies against 17-α-hydroxyprogesterone was added to all wells. After shaking and incubation for 1 hr at room temperature, addition of enzyme labeled anti-human IgG, IgM or IgE, repeat of incubation, washing, and addition of substrate, color development was measured at 405 nm. Results were calculated as percentage of anti-17-α-hydroxyprogesterone binding to 17-α-hydroxyprogesterone and other hormones. Also, anti-estrogen binding to estrogen and other hormones in solid phase by progesterone in liquid phase was performed and calculated in a similar manner.
(§2) Human sera containing 17-α-hydroxyprogesterone IgG-, IgM- and IgE-binding antibodies were reacted against progesterone, estrogen, hydrocortisone and cholesterol. In comparison to 100% binding of anti-17-α-hydroxyprogesterone-binding to 17-α-hydroxyprogesterone, the IgG anti-17-α-hydroxyprogesterone-binding to progesterone, estrogen, hydrocortisone and cholesterol was 69-77%, 25-30%, 39-53%, and less than 10% respectively (Table 4). The % binding of serum IgM and IgE anti-17-α-hydroxyprogesterone to 17-1-hydroxyprogesterone, progesterone, estrogen, hydrocortisone and cholesterol was similar to the binding of IgG. This binding of anti-17-α-hydroxyprogesterone to progesterone was the highest, followed by hydrocortisone, then estrogen, to almost no binding with cholesterol. Similar to this, human sera with IgG, IgM and IgE binding antibodies against estrogen were reacted with progesterone, 17-α-hydroxyprogesterone, hydrocortisone and cholesterol, in the presence of estrogen.

[2] = system: serum IgM anti-17-α-hydroxyprogesterone antibodies; test: ELISA binding of IgM 17-α-hydroxyprogesterone antibodies to different hormones in solid phase; parameters: species or system human; conditions: for IgM binding (optical density): hormone in solid phase, 405 nm; for IgM % reaction: relative to 17-α-hydroxyprogesterone = 100
Description: as §1, §2

[3] = system: serum IgM anti-estrogen antibodies; test: ELISA binding of IgM estrogen antibodies to different hormones in solid phase; parameters: species or system human; conditions: for IgM anti-estrogen binding: relative to estrogen, over three sera; for IgM binding (optical density): hormone in solid phase, 405 nm; for IgM % reaction: relative to estrogen = 100
Description: as §1, §2

[4] = system: serum IgG anti-estrogen antibodies; test: ELISA binding of IgG estrogen antibodies to different hormones in solid phase; parameters: species or system human; conditions: for IgG anti-estrogen binding: relative to estrogen, over three sera; for IgG binding (optical density): hormone in solid phase, 405 nm; for IgG % reaction: relative to estrogen = 100
Description: as §1, §2

[5] = system: serum IgE anti-17-α-hydroxyprogesterone antibodies; test: ELISA binding of IgE 17-α-hydroxyprogesterone antibodies to different hormones in solid phase; parameters: species or system human; conditions: for IgE binding (optical density): hormone in solid phase, 405 nm; for IgE % reaction: relative to 17-α-hydroxyprogesterone = 100
Description: as §1, §2

[6] = system: serum IgG anti-17-α-hydroxyprogesterone antibodies; test: ELISA binding of IgG 17-α-hydroxyprogesterone antibodies to different hormones in solid phase; parameters: species or system human; conditions: for IgG anti-17-α-hydroxyprogesterone binding: in comparison to 100% binding to 17-α-hydroxyprogesterone, over three sera; for IgG binding (optical density): hormone in solid phase, 405 nm; for IgG % reaction: relative to 17-α-hydroxyprogesterone = 100
Description: as §1, §2

[7] = system: serum IgG anti-estrogen antibodies; test: Competition ELISA: absorption of serum IgG anti-estrogen with specific and non-specific antigens; format: binding, human; conditions: for inhibition of anti-estrogen binding to estrogen (IgG): antigen in liquid phase, over the three sera; for IgG level after absorption: absorption with 250 μg/mL, optical density 405 nm
Description: (§3) For this, microtiter plates were coated with hormones and blocked by the addition of 2% BSA in PBST. 100 μl of serum diluent buffer was added to all wells. […] After 60 minutes incubation 100 μl serum anti-estrogen or anti-progesterone was added to all wells. […] Results were calculated as percentage of inhibition in antigen-antibody reaction.
(§4) To examine whether antibodies to estrogen or progesterone are specific or cross-reactive, we performed competition ELISA by adding specific and non-specific antigens in liquid phase and examined prevention of serum antibody binding to the antigen in solid phase. […] For IgE anti-estrogen, this inhibition by estrogen-BSA was between 54-62%, and with progesterone-BSA, from 37-43%. […] This cross-reaction between estrogen and progesterone antibodies may be due to structural similarities between these two hormones.

[8] = system: serum IgE anti-estrogen antibodies; test: Competition ELISA: absorption of serum IgE anti-estrogen with specific and non-specific antigens; format: binding, human; conditions: for inhibition of IgE anti-estrogen binding: antigen in liquid phase, over the three sera; for IgE level after absorption: absorption with 250 μg/mL, optical density 405 nm
Description: as §3, §4

[9] = serum sample 1, before absorption 1.83
[10] = serum sample 2, before absorption 1.25
[11] = serum sample 3, before absorption 0.76
[12] = serum sample 1, before absorption 2.15
[13] = serum sample 2, before absorption 1.66
[14] = serum sample 3, before absorption 1.34

Molecule	IgE binding (optical density) ([1]; sample 1)	IgE binding (optical density) ([1]; sample 2)	IgE % reaction ([1]; sample 2)	IgE binding (optical density) ([1]; sample 3)	IgE % reaction ([1]; sample 3)	IgM binding (optical density) ([2]; sample 1)	IgM binding (optical density) ([2]; sample 2)	IgM binding (optical density) ([2]; sample 3)	IgM binding (optical density) ([3]; sample 1)	IgM binding (optical density) ([3]; sample 2)	IgM % reaction ([3]; sample 2)	IgM binding (optical density) ([3]; sample 3)	IgM % reaction ([3]; sample 3)	IgG binding (optical density) ([4]; sample 1)	IgG binding (optical density) ([4]; sample 2)	IgG binding (optical density) ([4]; sample 3)	IgE binding (optical density) ([5]; sample 1)	IgE binding (optical density) ([5]; sample 2)	IgE % reaction ([5]; sample 2)	IgE binding (optical density) ([5]; sample 3)	other results
CC(C)CCC[C@@H](C)[C@H]1CC[C@H]2[C@@H]3CC=C4C[C@@H](O)CC[C@]4(C)[C@H]3CC[C@]12C [C, Cholesterol]	0.15	0.21	−14%	0.28	−17%	0.18	0.19	0.15	0.13	0.25	−12%	0.24	−18%	0.12	0.19	0.15	0.2	0.23	−10%	0.18	IgE anti-estrogen binding [1]: not significant; IgM anti-estrogen binding [3]: not significant; IgG anti-estrogen binding [4]: not significant; IgG anti-17-α-hydroxyprogesterone binding [6]: less than 10%; IgG binding (optical density) ([6]; sample 1): 0.21; IgG % reaction ([6]; sample 1): −13%; IgG binding (optical density) ([6]; sample 2): 0.12; IgG binding (optical density) ([6]; sample 3): 0.17
C[C@]12CCC(=O)C=C1CC[C@@H]1[C@@H]2[C@@H](O)C[C@@]2(C)[C@H]1CC[C@]2(O)C(=O)CO [HC, Hydrocortisone]	0.17	0.29	−19%	0.25	−16%	0.47	0.5	0.51	0.16	0.44	−21%	0.23	−18%	0.15	0.31	0.18	0.58	1.2	−50%	0.68	IgE anti-estrogen binding [1]: not significant; IgM % reaction ([2]; sample 1): −36%; IgM % reaction ([2]; sample 2): −39%; IgM % reaction ([2]; sample 3): −55%; IgM anti-estrogen binding [3]: not significant; IgG anti-estrogen binding [4]: not significant; IgG % reaction ([4]; sample 2): −17%; IgE % reaction ([5]; sample 1): −40%; IgE % reaction ([5]; sample 3): −39%; IgG anti-17-α-hydroxyprogesterone binding [6]: 39-53%; IgG binding (optical density) ([6]; sample 1): 0.69; IgG % reaction ([6]; sample 1): −43%; IgG binding (optical density) ([6]; sample 2): 0.37; IgG % reaction ([6]; sample 2): −39%; IgG binding (optical density) ([6]; sample 3): 0.36; IgG % reaction ([6]; sample 3): −53%
CC(=O)[C@@]1(O)CC[C@H]2[C@@H]3CCC4=CC(=O)CC[C@]4(C)[C@H]3CC[C@@]21C [HP, 17-α-hydroxy-progesterone]	0.22	0.65	−43%	0.73	−46%	1.3	1.2	0.92	0.34	0.88	−42%	0.59	−45%	0.42	0.75	0.52	1.45	2.4	−100%	1.1	IgE % reaction ([1]; sample 1): −28%; IgM % reaction ([2]; sample 1): −100%; IgM % reaction ([2]; sample 2): −100%; IgM % reaction ([2]; sample 3): −100%; IgM % reaction ([3]; sample 1): −38%; IgG % reaction ([4]; sample 1): −35%; IgG % reaction ([4]; sample 2): −42%; IgG % reaction ([4]; sample 3): −57%; IgE % reaction ([5]; sample 1): −100%; IgE % reaction ([5]; sample 3): −100%; IgG anti-17-α-hydroxyprogesterone binding [6]: 100%; IgG binding (optical density) ([6]; sample 1): 1.6; IgG % reaction ([6]; sample 1): −100%; IgG binding (optical density) ([6]; sample 2): 0.95; IgG % reaction ([6]; sample 2): −100%; IgG binding (optical density) ([6]; sample 3): 0.68; IgG % reaction ([6]; sample 3): −100%
bovine serum albumin [BSA]	–	–	–	–	–	–	–	–	–	–	–	–	–	–	–	–	–	–	–	–	inhibition of anti-estrogen binding to estrogen (IgG) [7]: did not significantly absorb; IgG level after absorption [7, 9]: 1.79; IgG level after absorption [7, 10]: 1.13; IgG level after absorption [7, 11]: 0.81; inhibition of IgE anti-estrogen binding [8]: did not significantly absorb; IgE level after absorption [8, 12]: 2.24; IgE level after absorption [8, 13]: 1.53; IgE level after absorption [8, 14]: 1.26
B1	–	–	–	–	–	–	–	–	–	–	–	–	–	–	–	–	–	–	–	–	inhibition of anti-estrogen binding to estrogen (IgG) [7]: did not significantly absorb; IgG level after absorption [7, 9]: 1.67; IgG level after absorption [7, 10]: 1.13; IgG level after absorption [7, 11]: 0.68; inhibition of IgE anti-estrogen binding [8]: did not significantly absorb; IgE level after absorption [8, 12]: 2.05; IgE level after absorption [8, 13]: 1.73; IgE level after absorption [8, 14]: 1.11

Reference: US20060025390A1, “Treatment of hormone allergy and related symptoms and disorders” (priority 2004, published 2006)
